Laboratory results: patent publication US5789403A, “Substituted thiazolo [3,2-a]azepine derivatives” (Eisai Co., Ltd., priority 1994, dated 1998)

Experiments:
[1] = molecular target: T1, NEP (neutral endpeptidase) (Rattus norvegicus, UniProt P07861); assay: NEP inhibiting activity with rat kidney cortex membrane fraction; format: biochemical; conditions: substrate Benzoyl-Gly-Arg-Arg-2-naphthylamide, 540 nm
T1 construct: membrane fraction prepared from the kidney cortex of rat; from tissue; host or cells: rat kidney cortex membrane fraction
T1 sequence (P07861 1-750): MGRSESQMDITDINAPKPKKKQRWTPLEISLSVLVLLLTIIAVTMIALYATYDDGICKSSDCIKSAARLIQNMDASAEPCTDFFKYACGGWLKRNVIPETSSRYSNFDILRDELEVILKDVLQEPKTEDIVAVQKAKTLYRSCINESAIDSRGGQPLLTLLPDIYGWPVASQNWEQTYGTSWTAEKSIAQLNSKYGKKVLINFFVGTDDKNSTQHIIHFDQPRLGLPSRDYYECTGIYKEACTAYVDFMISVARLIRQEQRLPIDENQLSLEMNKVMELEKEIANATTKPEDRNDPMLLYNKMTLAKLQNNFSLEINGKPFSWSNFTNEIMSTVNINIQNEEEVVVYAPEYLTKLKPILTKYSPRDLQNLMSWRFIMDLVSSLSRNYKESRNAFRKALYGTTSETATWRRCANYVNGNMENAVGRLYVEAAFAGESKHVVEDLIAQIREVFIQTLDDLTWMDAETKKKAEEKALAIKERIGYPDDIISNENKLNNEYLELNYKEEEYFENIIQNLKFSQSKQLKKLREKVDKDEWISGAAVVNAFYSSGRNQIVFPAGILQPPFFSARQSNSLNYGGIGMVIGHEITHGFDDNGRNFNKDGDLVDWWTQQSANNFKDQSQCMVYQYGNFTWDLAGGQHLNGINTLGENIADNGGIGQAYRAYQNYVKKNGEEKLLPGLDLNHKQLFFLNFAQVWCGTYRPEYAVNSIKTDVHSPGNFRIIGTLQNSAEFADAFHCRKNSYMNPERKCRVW
Experimental: Determination of NEP inhibiting activities of medicaments with rat kidney cortex
NEP activity was determined with the membrane fraction prepared from the kidney cortex of rat according to the process of Booth and Kenny (A Rapid Method for the Purification of Microvilli from Rabbit Kidney., Andrew G. Booth and A. John Kenny, Biochem J., 1974, 142, 575-581).
The NEP activity was determined according to the process of Orlowsky and Wilk (Purification and Specificity of a Membrane-Bound Metalloendpeptidase from Bovine Pituitaries., Marian Orlowsky and Shrwin Wilk, Biochemistry, 1981, 20, 4942-4950.) by the following method.
Benzoyl-glycyl-arginyl-arginyl-2-naphthylamide (Benzoyl-Gly-Arg-Arg-2-napththylamide (Nova Biochem, Switzerland)) was used as substrate. The naphthylamine liberated in the presence of the NEP enzyme sample and excess of leucine aminopeptidase (Sigma Chemical Co., U.S.A.) was color-developed with […] (Sigma Chemical Co., U.S.A.) and the absorbance at a wavelength of 540 nm was determined.
The NEP inhibiting activity was determined by adding the test compound to the above experiment system in final concentrations of 1, 3, 10, 30, 100, 300 and 1000 nM to form an inhibition curve and determining the concentration at which 50% of the activity was inhibited as IC50. [4S-(4α,7α(R*), 12bβ]]-7-[(1-oxo-2(S)-thio-3-phenylpropyl)amino]-1,2,3,4,6,7,8,12b-octahydro-6-oxopyrido[2,1-a] [2] benzazepine-4-carboxylic acid (which is a compound disclosed in Japanese Patent Publication-A No. 4-282382) was used as the control compound.

[2] = molecular target: T2, ACE (angiotensin I converting enzyme) (Rattus norvegicus, UniProt P47820); assay: ACE inhibiting activity with rat lung membrane fraction; format: biochemical; conditions: substrate Hippuryl-His-Leu, borate buffer pH 8.3, 228 nm
T2 construct: membrane fraction prepared from the lung of rat; from tissue; host or cells: rat lung membrane fraction
T2 sequence (P47820 36-1313): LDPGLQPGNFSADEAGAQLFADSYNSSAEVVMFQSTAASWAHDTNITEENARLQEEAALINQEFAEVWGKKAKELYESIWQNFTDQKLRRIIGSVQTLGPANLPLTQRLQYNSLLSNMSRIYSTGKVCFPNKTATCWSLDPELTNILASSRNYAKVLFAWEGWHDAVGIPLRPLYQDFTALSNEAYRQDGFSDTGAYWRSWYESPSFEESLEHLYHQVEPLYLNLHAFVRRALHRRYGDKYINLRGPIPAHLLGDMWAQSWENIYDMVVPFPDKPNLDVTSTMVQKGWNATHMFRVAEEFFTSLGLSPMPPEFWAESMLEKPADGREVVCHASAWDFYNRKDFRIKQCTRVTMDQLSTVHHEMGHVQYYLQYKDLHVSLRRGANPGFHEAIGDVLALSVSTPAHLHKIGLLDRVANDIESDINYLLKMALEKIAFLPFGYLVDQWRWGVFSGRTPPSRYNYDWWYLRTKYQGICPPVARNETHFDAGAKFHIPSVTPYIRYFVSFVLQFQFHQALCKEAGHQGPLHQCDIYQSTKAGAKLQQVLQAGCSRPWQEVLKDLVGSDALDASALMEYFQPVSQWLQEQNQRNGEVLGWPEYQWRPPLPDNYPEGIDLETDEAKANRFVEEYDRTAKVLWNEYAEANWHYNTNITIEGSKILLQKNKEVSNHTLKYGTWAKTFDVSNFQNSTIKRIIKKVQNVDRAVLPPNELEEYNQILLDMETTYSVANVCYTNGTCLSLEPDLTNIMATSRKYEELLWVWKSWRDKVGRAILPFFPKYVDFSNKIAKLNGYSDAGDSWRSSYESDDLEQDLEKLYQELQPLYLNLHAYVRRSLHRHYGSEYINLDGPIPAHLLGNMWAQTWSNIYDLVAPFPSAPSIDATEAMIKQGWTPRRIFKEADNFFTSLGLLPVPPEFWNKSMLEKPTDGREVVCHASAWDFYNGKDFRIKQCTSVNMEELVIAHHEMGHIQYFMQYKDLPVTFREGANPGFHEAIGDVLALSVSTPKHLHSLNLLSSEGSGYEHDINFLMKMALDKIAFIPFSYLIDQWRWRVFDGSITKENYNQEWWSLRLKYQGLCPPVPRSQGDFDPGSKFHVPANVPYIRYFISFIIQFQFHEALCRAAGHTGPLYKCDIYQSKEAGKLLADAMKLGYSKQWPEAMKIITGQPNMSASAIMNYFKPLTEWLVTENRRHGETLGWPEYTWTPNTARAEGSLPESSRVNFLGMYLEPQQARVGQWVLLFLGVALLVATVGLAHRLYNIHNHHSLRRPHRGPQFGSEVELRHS
Experimental: Determination of ACE inhibiting activities of medicaments with rat lung
ACE inhibiting activity was examined with the membrane fraction prepared from the lung of rat according to the method of Wu-Wong et al. (Characterization of Endthelin Converting Enzyme in Rat Lung, Junshyum R. Wu-Wong, Gerald P. Budzik, Edward M. Devine and Terry J. Opgenorth, Biochem. Biophys. Res. Commun., 1990, 171, 1291-1296.).
The ACE activity was determined by a modification (wherein the pH of the borate buffer was changed to 8.3) of the Cushman-Cheung method (Spectrophotometric Assay and Properties of the Angiotensin-Converting Enzyme of Rabbit Lung., Cushman D. W. and Cheung H. S., 1971, 20, 1637-1648).
The hippurate liberated from Hippuryl-histidylleucine (Hippuryl-His-Leu (Peptidelnstitute lnc., Japan)) in the presence of ACE was extracted with ethyl acetate and the absorbance at a wavelength of 228 nm was determined.
The ACE inhibiting activity was determined by adding the test compound to the above experiment system in final concentrations of 1, 3, 10, 30, 100, 300 and 1000 nM to form an inhibition curve and determining the concentration at which 50% of the activity was inhibited as IC50. [4S-[4α,7α(R*),12bβ]]-7-[(1-oxo-2(S)-thio-3-phenylpropyl)amino]-1,2,3,4,6,7,8,12b-octahydro-6-oxopyrido[2,1-a] [2]benzazepine-4-carboxylic acid (which is a compound disclosed in Japanese Patent Publication-A No. 4-282382) was used as the control compound.

Which IC50 [1] does the source give for `CC[C@H](C)[C@H](S)C(=O)N[C@H]1CC[C@H](C)[C@H]2SC[C@@H](C(=O)O)N2C1=O` [Example 3, [3R-(3α,6α,9β,9aβ)]-6-[[(2S,3S)-1-Oxo-2-thio-3-methylpentyl]amino]-9-methyl-5-oxo-octahydrothiazolo[3,2-a]azepine-3-carboxylic acid] here?
The IC50 was 4.3 nM.

And the IC50 [2]?
Its IC50 is 2.5 nM.

Which results are given for `CC[C@H](C)[C@H](S)C(=O)N[C@H]1C[C@@H](C)C[C@H]2SC[C@@H](C(=O)O)N2C1=O` [Example 9, [3R-(3α,6α,8α,9aβ)]-6-[[(2S,3S)-1-Oxo-2-thio-3-methylpentyl]amino]-8-methyl-octahydro-5-oxothiazolo[3,2-a]azepine-3-carboxylic acid]?
IC50 [1]: 13 nM; IC50 [2]: 5.1 nM

With `CC[C@H](C)[C@H](S)C(=O)N[C@H]1C[C@H](C)C[C@H]2SC[C@@H](C(=O)O)N2C1=O` [Example 10, [3R-(3α,6α,8β,9aβ)]-6-[[(2S,3S)-1-Oxo-2-thio-3-methylpentyl]amino]-8-methyl-octahydro-5-oxothiazolo[3,2-a]azepine-3-carboxylic acid] as the compound, how does the IC50 [1] read?
Its IC50 is 12 nM.

What about the IC50 [2] of the same compound?
The IC50 was 4.3 nM.

How did the IC50 [1] turn out when `CC[C@H](C)[C@H](S)C(=O)N[C@H]1CC[C@@H](C)[C@H]2SC[C@@H](C(=O)O)N2C1=O` [Example 11, [3R-(3α,6α,9α,9aβ)]-6-[[(2S,3S)-1-Oxo-2-thio-3-methylpentyl]amino]-9-methyl-5-oxo-octahydrothiazolo[3,2-a]azepine-3-carboxylic acid] was run?
The IC50 was 6.7 nM.

And the IC50 [2]?
Its IC50 is 2.2 nM.

Which IC50 [1] does the source give for `CC[C@H]1CC[C@H](NC(=O)[C@@H](S)[C@@H](C)CC)C(=O)N2[C@@H]1SC[C@H]2C(=O)O` [Example 24, [3R-(3α,6α,9β,9aβ)]-6-[[(2S,3S)-1-Oxo-2-thio-3-methylpentyl]amino]-9-ethyl-5-oxo-octahydrothiazolo[3,2-a]azepine-3-carboxylic acid] here?
The IC50 was 1.5 nM.

And the IC50 [2]?
Its IC50 is 2.5 nM.
